Assays:
[1] = assay type: in vitro ADME, beagle dog; details: all four storage conditions, 2.5, 50 and 150 ng/mL
CYP3A = details: in vitro; cited from earlier work
CYP2D6 = details: in vitro; cited from earlier work

Structure (SMILES): CC[C@@H]1CN(C(=O)NCC(F)(F)F)C[C@@H]1c1cnc2cnc3[nH]ccc3n12 [Upadacitinib]
- Stability in beagle dog plasma (in words) [1]: stable
- Metabolism by CYP3A (CYP3A): mainly metabolized by CYP3A
- Metabolism by CYP2D6 (CYP2D6): a small part by CYP2D6

From article PMC8495142 (Drug Design, Development and Therapy, 2021)
